Values belong to the compound of their own block, whether it stands above or below them.
What was measured:
[1] = target: human D3 expressed in HEK cells (Homo sapiens, UniProt P35462); assay: Radioligand binding assay with [125I]IABN, D3R; conditions: for D2R/D3R selectivity, (Ki for D2R)/(Ki for D3R): ratio of Ki values
[2] = target: human D3 receptor over-expressed in CHO-K1 cells (Homo sapiens, UniProt P35462); assay: PathHunter β-arrestin recruitment assay, competition with dopamine; format: cell-based; conditions: 30 nM (EC80) dopamine, Mean ± SEM, at least three experiments
[3] = target: human D2 (long) expressed in HEK cells (Homo sapiens, UniProt P14416); assay: Radioligand binding assay with [125I]IABN, D2R
human D2 (long) expressed in HEK cells, sequence (P14416 whole entry): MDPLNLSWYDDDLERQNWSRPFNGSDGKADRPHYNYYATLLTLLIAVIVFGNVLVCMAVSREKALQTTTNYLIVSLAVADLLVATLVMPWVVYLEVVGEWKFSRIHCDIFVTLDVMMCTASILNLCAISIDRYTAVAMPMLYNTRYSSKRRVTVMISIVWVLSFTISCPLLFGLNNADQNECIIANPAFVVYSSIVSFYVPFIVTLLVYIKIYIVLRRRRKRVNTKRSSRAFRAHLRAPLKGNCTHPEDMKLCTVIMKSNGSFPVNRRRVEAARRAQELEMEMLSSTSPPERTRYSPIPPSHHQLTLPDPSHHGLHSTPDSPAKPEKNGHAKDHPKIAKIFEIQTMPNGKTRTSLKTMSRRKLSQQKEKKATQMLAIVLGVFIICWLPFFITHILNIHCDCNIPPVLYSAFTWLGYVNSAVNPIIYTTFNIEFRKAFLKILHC

human D3 receptor over-expressed in CHO-K1 cells, sequence (P35462 whole entry): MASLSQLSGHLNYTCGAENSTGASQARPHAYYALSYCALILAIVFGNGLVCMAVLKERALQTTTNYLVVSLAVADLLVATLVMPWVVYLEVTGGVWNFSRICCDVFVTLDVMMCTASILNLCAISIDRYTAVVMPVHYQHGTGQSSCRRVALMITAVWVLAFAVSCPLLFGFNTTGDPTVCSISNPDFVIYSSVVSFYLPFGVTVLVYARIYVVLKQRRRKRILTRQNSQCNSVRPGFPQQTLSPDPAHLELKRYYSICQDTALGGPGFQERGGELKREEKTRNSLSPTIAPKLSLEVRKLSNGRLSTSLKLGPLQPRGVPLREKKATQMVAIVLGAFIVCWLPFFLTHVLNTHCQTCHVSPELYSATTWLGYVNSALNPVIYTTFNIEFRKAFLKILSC
human D3 expressed in HEK cells, sequence (P35462 whole entry): as above

Structure (SMILES): C=CCN1C[C@H](OCCN)C[C@H]1CNC(=O)c1cc(CCCF)cc(OC)c1OC [Compound 35a, N-(((2S,4R)-1-allyl-4-(2-aminoethoxy)pyrrolidin-2-yl)methyl)-5-(3-fluoropropyl)-2,3-dimethoxybenzamide]
higher affinity for D3R versus D2R [1]: 11 fold

Structure (SMILES): C=CCN1C[C@H](OC(=O)Nc2ccoc2)C[C@H]1CNC(=O)c1cc(CCCF)cc(OC)c1OC [Compound 37h, (3R,5S)-1-allyl-5-((5-(3-fluoropropyl)-2,3-dimethoxybenzamido)methyl)pyrrolidin-3-yl furan-3-ylcarbamate]
D2R/D3R selectivity, (Ki for D2R)/(Ki for D3R) [1]: higher affinity for D2R versus D3R

Structure (SMILES): C=CCN1C[C@H](OC(=O)Nc2ccc(-c3ccccn3)cc2)C[C@H]1CNC(=O)c1cc(CCCF)cc(OC)c1OC [Compound 37k, (3R,5S)-1-allyl-5-((5-(3-fluoropropyl)-2,3-dimethoxybenzamido)methyl)pyrrolidin-3-yl (4-(pyridin-2-yl)phenyl)carbamate]
IC50 in β-arrestin recruitment assay (inhibiting dopamine) [2]: much lower potency

Structure (SMILES): C=CCN1C[C@@H](OCCCN)C[C@H]1CNC(=O)c1cc(CCCF)cc(OC)c1OC [Compound 40, N-(((2S,4S)-1-allyl-4-(3-aminopropoxy)pyrrolidin-2-yl)methyl)-5-(3-fluoropropyl)-2,3-dimethoxybenzamide]
Ki [3]: 16.9 ± 0.9 nM

Now from value to compound:

IC50 in β-arrestin recruitment assay (inhibiting dopamine) [2]: much lower potency
Structure (SMILES): C=CCN1C[C@H](OC(=O)Nc2ccc(-c3ccsc3)cc2)C[C@H]1CNC(=O)c1cc(CCCF)cc(OC)c1OC [Compound 37l, (3R,5S)-1-allyl-5-((5-(3-fluoropropyl)-2,3-dimethoxybenzamido)methyl)pyrrolidin-3-yl (4-(thiophen-3-yl)phenyl)carbamate]

D2R/D3R selectivity, (Ki for D2R)/(Ki for D3R) [1]: modest
Structure (SMILES): C=CCN1C[C@@H](OC(=O)Nc2ccc(-c3ccsc3)cc2)C[C@H]1CNC(=O)c1cc(CCCF)cc(OC)c1OC [Compound 41, (3S,5S)-1-allyl-5-((5-(3-fluoropropyl)-2,3-dimethoxybenzamido)methyl)pyrrolidin-3-yl (4-(thiophen-3-yl)phenyl)carbamate]

IC50 in β-arrestin recruitment assay (inhibiting dopamine) [2]: much lower potency
Structure (SMILES): CCN1C[C@H](OC(=O)Nc2ccc(-c3ccsc3)cc2)C[C@H]1CNC(=O)c1cc(CCCF)cc(OC)c1OC [Compound 47, (3R,5S)-1-ethyl-5-((5-(3-fluoropropyl)-2,3-dimethoxybenzamido)methyl)pyrrolidin-3-yl (4-(thiophen-3-yl)phenyl)carbamate]
